# Data from patent US7138361B2, “Herbicidal heterocycles” (E. I. du Pont de Nemours and Company, priority 2000, dated 2006).
# Key:
# Type in all cases: in vivo
# [1] = test system: Surinam grass (Brachiaria decumbens); assay: Test B postemergence
# How it was run: (§1)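 Visual injury scores, 0 = no effect to 100 = complete control, assigned against controls after 13 to 15 days in the greenhouse. Compounds formulated in non-phytotoxic solvent plus surfactant and applied to soil after planting (pre) or onto foliage of 1- to 4-leaf plants (post).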
# [2] = test system: barnyardgrass (Echinochloa crus-galli); assay: Test B postemergence
# How it was run: as §1
# [3] = test system: cocklebur (Xanthium strumarium); assay: Test B postemergence
# How it was run: as §1
# [4] = test system: corn (Zea mays); assay: Test B postemergence
# How it was run: as §1
# [5] = test system: crabgrass (Digitaria sanguinalis); assay: Test B postemergence
# How it was run: as §1
# [6] = test system: giant foxtail (Setaria faberii); assay: Test B postemergence
# How it was run: as §1
# [7] = test system: morning glory (Ipomoea hederacea); assay: Test B postemergence
# How it was run: as §1
# [8] = test system: pigweed (Amaranthus retroflexus); assay: Test B postemergence
# How it was run: as §1
# [9] = test system: velvetleaf (Abutilon theophrasti); assay: Test B postemergence
# How it was run: as §1
# [10] = test system: wheat (Triticum aestivum); assay: Test B postemergence
# How it was run: as §1
# [11] = test system: wild oat (Avena fatua); assay: Test B postemergence
# How it was run: as §1
# [12] = test system: Nightshade; assay: Test C preemergence
# [13] = test system: common ragweed (Ambrosia elatior); assay: Test C preemergence; conditions: for Plant response rating (0 to 100), Ragweed, Common: visual evaluation after 12 to 14 days
# How it was run: (§2)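 Herbicidal effect is a visual 0–100 score (100 = complete control) assigned versus untreated plants, 12 to 14 days after spraying in the greenhouse. Test compounds were applied in a non-phytotoxic, surfactant-containing solvent.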
# [14] = test system: corn (Zea mays); assay: Test C preemergence; conditions: for Plant response rating (0 to 100), Corn: visual evaluation after 12 to 14 days
# How it was run: as §2
# [15] = test system: goosegrass (Eleusine indica); assay: Test C preemergence; conditions: for Plant response rating (0 to 100), Goosegrass: visual evaluation after 12 to 14 days
# How it was run: as §2
# [16] = test system: johnsongrass (Sorghum halepense); assay: Test C preemergence; conditions: for Plant response rating (0 to 100), Johnsongrass: visual evaluation after 12 to 14 days
# How it was run: as §2
# [17] = test system: morningglory (Ipomoea hederacea); assay: Test C preemergence; conditions: for Plant response rating (0 to 100), Morningglory: visual evaluation after 12 to 14 days
# How it was run: as §2
# [18] = test system: velvetleaf (Abutilon theophrasti); assay: Test C preemergence; conditions: for Plant response rating (0 to 100), Velvetleaf: visual evaluation after 12 to 14 days
# How it was run: as §2
# [19] = test system: yellow nutsedge (Cyperus esculentus); assay: Test C preemergence; conditions: for Plant response rating (0 to 100), Nutsedge: visual evaluation after 12 to 14 days
# How it was run: as §2
# [20] = test system: Sunflower; assay: Test C preemergence; conditions: visual evaluation after 12 to 14 days
# [21] = test system: Sunflower; assay: Test C preemergence; conditions: Rate 125 g/ha; scale 0 to 100, 0 no effect, 100 complete control
# [22] = test system: lambsquarters (Chenopodium album); assay: Test C preemergence
# How it was run: as §2
# [23] = Rate 125 g/ha, scale 0 (no effect) to 100 (complete control), 13 to 15 days
# [24] = Rate 500 g/ha, scale 0 to 100, 0 is no effect, 100 is complete control, 13 to 15 days
# [25] = Rate 125 g/ha, scale 0 to 100, 0 no effect, 100 complete control
# [26] = preemergence, Rate 125 g/ha, scale 0 to 100, 0 no effect, 100 complete control
# [27] = Rate 62 g/ha, scale 0 to 100, 0 no effect, 100 complete control
# [28] = preemergence, Rate 31 g/ha, scale 0 to 100
# [29] = preemergence, Rate 62 g/ha, scale 0 to 100
# [30] = preemergence, Rate 250 g/ha, scale 0 to 100, 0 no effect, 100 complete control
compound,measurement,setting,value
CC1(c2ccn(C3OCN(c4cccc(C(F)(F)F)c4)C3=O)n2)CC1 (centres unmarked) [Compound 62],"Plant response rating, Surinam grass",[1]; [23],0
same,"Plant response rating, Surinam grass",[1]; [24],0
same,"Plant response rating, Barnyardgrass",[2]; [23],0
same,"Plant response rating, Barnyardgrass",[2]; [24],0
same,"Plant response rating, Cocklebur",[3]; [23],0
same,"Plant response rating, Cocklebur",[3]; [24],0
same,"Plant response rating, Corn",[4]; [23],0
same,"Plant response rating, Corn",[4]; [24],0
same,"Plant response rating, Crabgrass",[5]; [23],0
same,"Plant response rating, Crabgrass",[5]; [24],0
same,"Plant response rating, Foxtail, Giant",[6]; [23],0
same,"Plant response rating, Foxtail, Giant",[6]; [24],0
same,"Plant response rating, Morningglory",[7]; [23],0
same,"Plant response rating, Morningglory",[7]; [24],0
same,"Plant response rating, Pigweed",[8]; [23],0
same,"Plant response rating, Pigweed",[8]; [24],40
same,"Plant response rating, Velvetleaf",[9]; [23],0
same,"Plant response rating, Velvetleaf",[9]; [24],0
same,"Plant response rating, Wheat",[10]; [23],0
same,"Plant response rating, Wheat",[10]; [24],0
same,"Plant response rating, Wild Oat",[11]; [23],0
same,"Plant response rating, Wild Oat",[11]; [24],0
same,"Plant response rating, Nightshade","[12]; Rate 62 g/ha; scale 0 to 100, 0 no effect, 100 complete control",0
same,"Plant response rating, Nightshade",[12]; [25],0
same,"Plant response rating (0 to 100), Ragweed, Common","[13]; preemergence, Rate 250 g/ha",0
same,"Plant response rating (0 to 100), Ragweed, Common","[13]; preemergence, Rate 500 g/ha",0
same,"Plant response rating, Ragweed, Common",[13]; [26],0
same,"Plant response rating, Corn",[14]; [27],0
same,"Plant response rating (0 to 100), Corn","[14]; preemergence, Rate 250 g/ha",0
same,"Plant response rating (0 to 100), Corn","[14]; preemergence, Rate 500 g/ha",20
same,"Plant response rating, Corn",[14]; [26],0
same,"Plant response rating, Goosegrass",[15]; [27],80
same,"Plant response rating (0 to 100), Goosegrass","[15]; preemergence, Rate 250 g/ha",100
same,"Plant response rating (0 to 100), Goosegrass","[15]; preemergence, Rate 500 g/ha",100
same,"Plant response rating, Goosegrass",[15]; [26],90
same,"Plant response rating, Johnsongrass",[16]; [27],20
same,"Plant response rating (0 to 100), Johnsongrass","[16]; preemergence, Rate 250 g/ha",60
same,"Plant response rating (0 to 100), Johnsongrass","[16]; preemergence, Rate 500 g/ha",100
same,"Plant response rating, Johnsongrass",[16]; [26],40
same,"Plant response rating, Morningglory",[17]; [27],0
same,"Plant response rating (0 to 100), Morningglory","[17]; preemergence, Rate 250 g/ha",0
same,"Plant response rating (0 to 100), Morningglory","[17]; preemergence, Rate 500 g/ha",0
same,"Plant response rating, Morningglory",[17]; [26],0
same,"Plant response rating (0 to 100), Velvetleaf","[18]; preemergence, Rate 250 g/ha",0
same,"Plant response rating (0 to 100), Velvetleaf","[18]; preemergence, Rate 500 g/ha",20
same,"Plant response rating, Velvetleaf",[18]; [26],0
same,"Plant response rating, Nutsedge",[19]; [27],0
same,"Plant response rating (0 to 100), Nutsedge","[19]; preemergence, Rate 250 g/ha",20
same,"Plant response rating (0 to 100), Nutsedge","[19]; preemergence, Rate 500 g/ha",70
same,"Plant response rating, Nutsedge",[19]; [26],0
same,"Plant response rating (0 to 100), Sunflower",[20]; Rate 250 g/ha,0
same,"Plant response rating (0 to 100), Sunflower",[20]; Rate 500 g/ha,0
CC(C)OC(=O)c1cccc(N2CCC(n3ccc(C(C)(C)C)n3)C2=O)c1 (centres unmarked) [Compound 124],"Plant response rating, Surinam grass",[1]; [25],0
same,"Plant response rating, Surinam grass",[1]; [24],0
same,"Plant response rating, Barnyardgrass",[2]; [25],0
same,"Plant response rating, Barnyardgrass",[2]; [24],0
same,"Plant response rating, Cocklebur",[3]; [25],20
same,"Plant response rating, Cocklebur",[3]; [24],90
same,"Plant response rating, Corn",[4]; [25],0
same,"Plant response rating, Corn",[4]; [24],0
same,"Plant response rating, Crabgrass",[5]; [25],0
same,"Plant response rating, Foxtail, Giant",[6]; [25],0
same,"Plant response rating, Morningglory",[7]; [25],0
same,"Plant response rating, Pigweed",[8]; [25],0
same,"Plant response rating, Velvetleaf",[9]; [25],0
same,"Plant response rating, Wheat",[10]; [25],0
same,"Plant response rating, Wild Oat",[11]; [25],0
same,"Plant response rating, Nightshade","[12]; Rate 31 g/ha, scale 0 to 100",0
same,"Plant response rating, Nightshade","[12]; Rate 62 g/ha, scale 0 to 100",0
same,"Plant response rating, Nightshade","[12]; Rate 125 g/ha; scale 0 to 100, 0 no effect, 100 complete control",20
same,"Plant response rating, Nightshade","[12]; Rate 250 g/ha, scale 0 to 100, 0 no effect, 100 complete control",100
same,"Plant response rating, Sunflower",[21],0
same,"Plant response rating, Ragweed, Common",[13]; [25],0
same,"Plant response rating, Ragweed, Common",[13]; [28],0
same,"Plant response rating, Ragweed, Common",[13]; [29],0
same,"Plant response rating, Ragweed, Common",[13]; [30],0
same,"Plant response rating, Corn",[14]; [25],0
same,"Plant response rating, Corn",[14]; [28],0
same,"Plant response rating, Corn",[14]; [29],0
same,"Plant response rating, Corn",[14]; [30],0
same,"Plant response rating, Goosegrass",[15]; [25],40
same,"Plant response rating, Goosegrass",[15]; [28],0
same,"Plant response rating, Goosegrass",[15]; [29],0
same,"Plant response rating, Goosegrass",[15]; [30],60
same,"Plant response rating, Johnsongrass",[16]; [25],20
same,"Plant response rating, Johnsongrass",[16]; [28],0
same,"Plant response rating, Johnsongrass",[16]; [29],15
same,"Plant response rating, Johnsongrass",[16]; [30],30
same,"Plant response rating, Lambsquarters",[22]; [25],100
same,"Plant response rating, Lambsquarters",[22]; [28],45
same,"Plant response rating, Lambsquarters",[22]; [29],50
same,"Plant response rating, Lambsquarters",[22]; [30],100
same,"Plant response rating, Morningglory",[17]; [25],0
same,"Plant response rating, Morningglory",[17]; [28],0
same,"Plant response rating, Morningglory",[17]; [29],0
same,"Plant response rating, Morningglory",[17]; [30],0
same,"Plant response rating, Velvetleaf",[18]; [25],0
same,"Plant response rating, Velvetleaf",[18]; [28],0
same,"Plant response rating, Velvetleaf",[18]; [29],0
same,"Plant response rating, Velvetleaf",[18]; [30],0
same,"Plant response rating, Nutsedge",[19]; [25],0
same,"Plant response rating, Nutsedge",[19]; [28],0
same,"Plant response rating, Nutsedge",[19]; [29],0
same,"Plant response rating, Nutsedge",[19]; [30],0
